Key:
Type in all cases: biochemical
TTK = biological target: T1, TTK (Homo sapiens, UniProt P33981); test: TTK enzyme inhibition, ADP-Glo kinase assay; design: purchased Signalchem T20-10G; settings: ATP 5 μM
T1 sequence (P33981 1-857): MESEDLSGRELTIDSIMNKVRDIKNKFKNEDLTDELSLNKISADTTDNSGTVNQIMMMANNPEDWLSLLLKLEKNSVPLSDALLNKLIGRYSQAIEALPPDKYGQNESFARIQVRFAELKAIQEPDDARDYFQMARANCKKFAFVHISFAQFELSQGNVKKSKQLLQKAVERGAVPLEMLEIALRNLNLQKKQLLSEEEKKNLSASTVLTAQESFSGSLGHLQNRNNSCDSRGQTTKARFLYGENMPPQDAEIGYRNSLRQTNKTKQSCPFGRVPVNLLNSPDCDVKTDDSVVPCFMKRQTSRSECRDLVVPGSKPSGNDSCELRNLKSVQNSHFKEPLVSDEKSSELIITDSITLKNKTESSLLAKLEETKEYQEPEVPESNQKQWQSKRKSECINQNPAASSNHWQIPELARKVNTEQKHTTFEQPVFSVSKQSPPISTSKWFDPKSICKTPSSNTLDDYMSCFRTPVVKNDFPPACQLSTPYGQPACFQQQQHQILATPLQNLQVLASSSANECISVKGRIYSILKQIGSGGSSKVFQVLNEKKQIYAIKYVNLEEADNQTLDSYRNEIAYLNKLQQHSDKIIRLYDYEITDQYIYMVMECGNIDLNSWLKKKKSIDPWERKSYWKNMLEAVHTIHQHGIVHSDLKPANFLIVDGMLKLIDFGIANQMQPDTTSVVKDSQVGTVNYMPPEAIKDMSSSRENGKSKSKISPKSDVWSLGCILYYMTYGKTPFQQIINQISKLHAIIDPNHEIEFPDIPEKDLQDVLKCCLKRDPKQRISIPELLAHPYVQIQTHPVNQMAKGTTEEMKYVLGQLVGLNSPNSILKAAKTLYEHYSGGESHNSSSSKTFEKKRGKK
Summary of the method: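 Recombinant human TTK (7.5 ng) reacted with 5 μM ATP and MBP substrate (0.2 μg) for 4 h at 25° C in Tris-HCl pH 7.4, MgCl2, BSA, DTT buffer, compound at 0.000017–1 μM. ADP formation by ADP-Glo luminescence; IC50 (nM) relative to solvent control.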

[1] = biological target: T2, human GST-DYRK1A (full length) (Homo sapiens, UniProt Q13627); test: GST-DYRK1A enzyme inhibition, ADP-Glo kinase assay; settings: read-out: DYRK1 IC50
T2 construct: purified human GST-DYRK1A (full length, Thermo scientifics) enzyme; GST; purchased Thermo scientifics
Summary of the method: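 ADP-Glo luminescence quantified kinase activity after a 1 h, 25° C reaction of 10 ng full-length GST-tagged human DYRK1A, substrate and 10 uM ATP in Tris-HCl buffer pH 7.4 with MgCl2, BSA and DTT. Triplicate IC50 values (nM) calculated relative to untreated solvent control.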

LRRK2 = LRRK2 (Homo sapiens, UniProt Q5S007); test: LRRK2 enzyme inhibition, ADP-Glo kinase assay; design: purchased Invitrogen PR8604B
Summary of the method: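 ADP-Glo luminescence read after 2 h at 25° C, 10 μM ATP, 25 ng purified human LRRK2 and […] substrate in Tris-HCl pH7.4 buffer with MgCl2, BSA, DTT. Twelve final concentrations, 50 μM down to 0.000001024 μM; IC50 (nM) from inhibition relative to untreated solvent control.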

Chain of LRRK2 (Q5S007 970-2527 limits assumed): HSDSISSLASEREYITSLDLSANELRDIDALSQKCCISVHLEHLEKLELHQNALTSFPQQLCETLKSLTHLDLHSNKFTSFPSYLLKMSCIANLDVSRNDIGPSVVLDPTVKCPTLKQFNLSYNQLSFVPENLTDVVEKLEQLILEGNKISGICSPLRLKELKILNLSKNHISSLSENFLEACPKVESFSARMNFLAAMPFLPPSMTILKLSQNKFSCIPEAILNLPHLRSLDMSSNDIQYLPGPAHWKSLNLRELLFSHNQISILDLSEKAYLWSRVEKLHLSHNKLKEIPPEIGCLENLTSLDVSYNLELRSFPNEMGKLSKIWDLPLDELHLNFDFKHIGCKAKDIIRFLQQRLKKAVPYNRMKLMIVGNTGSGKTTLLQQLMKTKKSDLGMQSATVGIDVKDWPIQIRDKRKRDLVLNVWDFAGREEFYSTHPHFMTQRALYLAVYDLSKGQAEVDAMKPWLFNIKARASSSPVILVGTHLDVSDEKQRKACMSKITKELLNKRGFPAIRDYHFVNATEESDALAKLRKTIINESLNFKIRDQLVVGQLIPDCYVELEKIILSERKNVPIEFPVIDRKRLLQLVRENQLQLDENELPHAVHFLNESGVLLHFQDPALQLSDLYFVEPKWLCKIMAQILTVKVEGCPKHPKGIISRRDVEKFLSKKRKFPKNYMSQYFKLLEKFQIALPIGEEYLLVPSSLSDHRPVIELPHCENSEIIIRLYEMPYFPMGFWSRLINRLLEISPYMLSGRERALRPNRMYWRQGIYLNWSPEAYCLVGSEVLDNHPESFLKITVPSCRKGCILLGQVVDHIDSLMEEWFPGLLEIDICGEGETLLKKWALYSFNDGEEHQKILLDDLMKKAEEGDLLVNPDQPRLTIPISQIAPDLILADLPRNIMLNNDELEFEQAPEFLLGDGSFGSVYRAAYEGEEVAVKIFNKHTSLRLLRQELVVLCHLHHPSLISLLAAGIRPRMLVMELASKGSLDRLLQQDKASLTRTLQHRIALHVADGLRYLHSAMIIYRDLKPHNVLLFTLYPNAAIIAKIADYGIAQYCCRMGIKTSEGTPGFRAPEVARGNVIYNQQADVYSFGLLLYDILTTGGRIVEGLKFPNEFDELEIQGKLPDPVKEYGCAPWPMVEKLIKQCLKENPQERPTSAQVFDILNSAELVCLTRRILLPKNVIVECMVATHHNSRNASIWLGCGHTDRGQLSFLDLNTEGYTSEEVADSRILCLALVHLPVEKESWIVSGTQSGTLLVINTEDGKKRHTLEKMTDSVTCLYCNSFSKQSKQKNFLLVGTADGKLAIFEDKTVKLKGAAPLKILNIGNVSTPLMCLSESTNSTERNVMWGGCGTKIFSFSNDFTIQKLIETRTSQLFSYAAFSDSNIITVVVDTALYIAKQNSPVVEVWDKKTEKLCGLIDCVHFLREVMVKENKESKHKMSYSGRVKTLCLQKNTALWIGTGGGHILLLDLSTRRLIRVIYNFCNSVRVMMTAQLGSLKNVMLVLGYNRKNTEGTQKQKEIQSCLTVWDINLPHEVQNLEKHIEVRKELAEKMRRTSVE

Compound	IC50 (TTK) [nM]	IC50 [1] [nM]	IC50 (LRRK2) [nM]
COCCNc1cc(Nc2ccc(C(=O)N3CCC(N4CCOCC4)CC3)c3c2OCC3)nc2[nH]cc(C(F)(F)F)c12 [Example 55, (7-((4-((2-methoxyethyl)amino)-3-(trifluoromethyl)-1H-pyrrolo[2,3-b]pyridin-6-yl)amino)-2,3-dihydrobenzofuran-4-yl)(4-morpholinopiperidin-1-yl)methanone]	101 to 300	< 100	< 100
O=C(c1ccc(Nc2cc(C3CC3)c3c(C(F)(F)F)c[nH]c3n2)c2c1CCO2)N1CCC(N2CCOCC2)CC1 [Example 93, (7-((4-cyclopropyl-3-(trifluoromethyl)-1H-pyrrolo[2,3-b]pyridin-6-yl)amino)-2,3-dihydrobenzofuran-4-yl)(4-morpholinopiperidin-1-yl)mthanone]	301 to 1000	–	< 100
COCCNc1cc(Nc2ccc(S(=O)(=O)N3CCC(N4CCOCC4)CC3)c3c2OCCO3)nc2[nH]cc(C(F)(F)F)c12 [Example 97, N^4-(2-methoxyethyl)-N^6-(8-((4-morpholonopiperidin-1-yl)sulfonyl)-2,3-dihydrobenzo[b] [1,4]dioxin-5-yl)-3-(trifluoromethyl)-1H-pyrrolo[2,3-b]pyridine-4,6-diamine]	101 to 300	101 to 300	< 100
CCNc1cc(Nc2ccc(C(=O)N3CCN(C4COC4)CC3)c3c2OCCO3)nc2[nH]cc(C(F)(F)F)c12 [Example 173, (8-((4-(ethylamino)-3-(trifluoromethyl)-1H-pyrrolo[2,3-b]pyridin-6-yl)amino)-2,3-dihydrobenzo[b] [1,4]dioxin-5-yl)(4-(oxetan-3-yl)piperazin-1-yl)methanone]	< 100	< 100	< 100
CNc1cc(Nc2ccc(P3(=O)CCN(C4CC4)CC3)cc2OC)nc2[nH]cc(C(F)(F)F)c12 [Example 205, 1-cyclopropyl-4-(3-methoxy-4-((4-(methylamino)-3-(trifluoromethyl)-1H-pyrrolo[2,3-b]pyridin-6-yl)amino)phenyl)-1,4-azaphosphinane 4-oxide]	< 100	< 100	101 to 300
COCCNc1cc(Nc2ccc(P3(=O)CCN(C4CC4)CC3)cc2OC)nc2[nH]cc(C(F)(F)F)c12 [Example 207, 1-cyclopropyl-4-(3-methoxy-4-((4-((2-methoxyethyl)amino)-3-(trifluoromethyl)-1H-pyrrolo[2,3-b]pyridin-6-yl)amino)phenyl)-1,4-azaphosphinane 4-oxide]	< 100	< 100	101 to 300
O=C(c1ccc(Nc2cc(C3CC3)c3c(C(F)(F)F)c[nH]c3n2)c2c1OCCO2)N1CCC(N2CCOCC2)CC1 [Example 221, (8-((4-cyclopropyl-3-(trifluoromethyl)-1H-pyrrolo[2,3-b]pyridin-6-yl)amino)-2,3-dihydrobenzo [b] [1,4]dioxin-5-yl)(4-morpholinopiperidin-1-yl)methanone]	< 100	–	101 to 300
COc1cc(S(=O)(=O)N2CCOCC2)ccc1Nc1cc(C2CC2)c2c(C(F)(F)F)c[nH]c2n1 [Example 222, 4-cyclopropyl-N-(2-methoxy-4-(morpholinosulfonyl)phenyl)-3-(trifluoromethyl)-1H-pyrrolo[2,3-b]pyridin-6-amine]	< 100	–	301 to 1000
N#Cc1c[nH]c2nc(Nc3ccc(C(=O)N4CCOCC4)c4c3OCCO4)cc(C3CC3)c12 [Example 225, 4-cyclopropyl-6-((8-(morpholine-4-carbonyl)-2,3-dihydrobenzo[b] [1,4]dioxin-5-yl)amino)-1H-pyrrolo[2,3-b]pyridine-3-carbonitrile]	< 100	–	< 100
N#Cc1c[nH]c2nc(Nc3ccc(C(=O)N4CCC(N5CCOCC5)CC4)c4c3OCCO4)cc(C3CC3)c12 [Example 226, 4-cyclopropyl-6-((8-(4-morpholinopiperidine-1-carbonyl)-2,3-dihydrobenzo[b] [1,4]dioxin-5-yl)amino)-1H-pyrrolo[2,3-b]pyridine-3-carbonitrile]	< 100	–	< 100
COc1cc(S(=O)(=O)N2CCC(N3CCOCC3)CC2)ccc1Nc1cc(C2CC2)c2c(C#N)c[nH]c2n1 [Example 228, 4-cyclopropyl-6-((2-methoxy-4-((4-morpholinopiperidin-1-yl)sulfonyl)phenyl)amino)-1H-pyrrolo[2,3-b]pyridine-3-carbonitrile]	< 100	–	< 100

Continued, values first:

IC50 (TTK) [nM]	IC50 [1] [nM]	IC50 (LRRK2) [nM]	Compound
< 100	< 100	< 100	CCNc1cc(Nc2ccc(P3(=O)CCN(C(C)=O)CC3)cc2OC)nc2[nH]cc(C(F)(F)F)c12 [Example 42, 1-(4-(4-((4-(ethylamino)-3-(trifluoromethyl)-1H-pyrrolo[2,3-b]pyridin-6-yl)amino)-3-methoxyphenyl)-4-oxido-1,4-azaphosphinan-1-yl)ethan-1-one]
< 100	< 100	< 100	CCNc1cc(Nc2ccc(C(=O)N3C[C@@H]4C[C@H]3CO4)c3c2OCCO3)nc2[nH]cc(C(F)(F)F)c12 [Example 44, ((1S,4S)-2-oxa-5-azabicyclo[2.2.1]heptan-5-yl)(8-((4-(ethylamino)-3-(trifluoromethyl)-1H-pyrrolo[2,3-b]pyridin-6-yl)amino)-2,3-dihydrobenzo[b] [1,4]dioxin-5-yl)methanone]
< 100	< 100	< 100	CCNc1cc(Nc2ccc(C(=O)N3CCC(N4CCOCC4)CC3)c3c2OCC3)nc2[nH]cc(C(F)(F)F)c12 [Example 90, (7-((4-(ethylamino)-3-(trifluoromethyl)-1H-pyrrolo[2,3-b]pyridin-6-yl)amino)-2,3-dihydrobenzofuran-4-yl)(4-morpholinopiperidin-1-yl)methanone]
< 100	< 100	< 100	O=C(c1ccc(Nc2cc(NC3CC3)c3c(C(F)(F)F)c[nH]c3n2)c2c1CCO2)N1CCC(N2CCOCC2)CC1 [Example 92, (7-((4-(cyclopropylamino)-3-(trifluoromethyl)-1H-pyrrolo[2,3-b]pyridin-6-yl)amino)-2,3-dihydrobenzofuran-4-yl)(4-morpholinopiperidin-1-yl)methanone]
< 100	< 100	< 100	CCNc1cc(Nc2ccc(C(=O)N3CCC(N4C[C@@H]5C[C@H]4CO5)CC3)c3c2OCC3)nc2[nH]cc(C(F)(F)F)c12 [Example 105, (4-((1S,4S)-2-oxa-5-azabicyclo[2.2.1]heptan-5-yl)piperidin-1-yl)(7-((4-(ethylamino)-3-(trifluoromethyl)-1H-pyrrolo[2,3-b]pyridin-6-yl)amino)-2,3-dihydrobenzofuran-4-yl)methanone]
< 100	301 to 1000	< 100	CNc1cc(Nc2ccc(P3(=O)CCN(C4CC4)CC3)cc2OC)nc2[nH]cc(C#N)c12 [Example 146, 6-((4-(1-cyclopropyl-4-oxido-1,4-azaphosphinan-4-yl)-2-methoxyphenyl)amino)-4-(methylamino)-1H-pyrrolo[2,3-b]pyridine-3-carbonitrile]
< 100	301 to 1000	< 100	COCCNc1cc(Nc2ccc(P3(=O)CCN(C4CC4)CC3)cc2OC)nc2[nH]cc(C#N)c12 [Example 148, 6-((4-(1-cyclopropyl-4-oxido-1,4-azaphosphinan-4-yl)-2-methoxyphenyl)amino)-4-((2-methoxyethyl)amino)-1H-pyrrolo[2,3-b]pyridine-3-carbonitrile]
